Test results as given in PubChem BioAssay (NCI).
Several values for one entry are separate records, joined by “and”; a condition that tells them apart may be missing. Equal entries are not always repeated.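 Exposure lasted 48 hours, with cells grown in 96-well plates and compounds tested at five concentrations. GI50: concentration for 50% inhibition of growth. TGI: concentration producing complete growth inhibition.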

Key:
Assay in all cases: DTP human tumour cell line panel, 48 h
TK-10 renal = system: TK-10 renal
T-47D breast = system: T-47D breast
CCRF-CEM leukemia = system: CCRF-CEM leukemia
HOP-62 NSCLC = system: HOP-62 NSCLC
786-0 renal = system: 786-0 renal
HCT-116 colon = system: HCT-116 colon
SK-OV-3 ovarian = system: SK-OV-3 ovarian
MDA-MB-435 = system: MDA-MB-435

SMILES	GI50 (TK-10 renal)	TGI (TK-10 renal)	GI50 (T-47D breast) [µM]	TGI (T-47D breast)	GI50 (CCRF-CEM leukemia) [µM]	TGI (CCRF-CEM leukemia) [µM]	GI50 (HOP-62 NSCLC)	TGI (HOP-62 NSCLC)	GI50 (786-0 renal)	TGI (786-0 renal)	GI50 (HCT-116 colon) [µM]	TGI (HCT-116 colon)	GI50 (SK-OV-3 ovarian) [µM]	TGI (SK-OV-3 ovarian) [µM]	GI50 (MDA-MB-435) [µM]	TGI (MDA-MB-435)
COc1ccc(/C(C)=C(\c2ccc(OCCN3CCCCCC3)cc2)c2ccc(OC(=O)C3CCCCC3)cc2)cc1	1.84 µM	4.25 µM	0.405	3.33 µM	0.75	9.39	1.89 µM	4.21 µM	1.11 µM	3.06 µM	0.638	2.47 µM	1.7	3.96	1.57	3.38 µM
COc1cc(/C=C\c2cc(OC)c(OC)c(OC)c2)cc(N/C=C\C(=O)c2c[nH]c3ccccc23)c1OC	1.86 µM	3.54 µM	1.55	4.51 µM			11.6 µM	28.1 µM	2.04 µM	4.14 µM	1.76	3.49 µM	12.3	27	2.43	8.04 µM
C#CCOc1cccc(Nc2ncnc3c(NC(=O)C=C)cccc23)c1	19.2 µM	69.2 µM	18.2	78.4 µM	16.5	> 100	27.8 µM	> 100 µM	19.1 µM	52.7 µM	17	85.9 µM	38.2	> 100	7.14	77.7 µM
COc1ccc(-c2nc(-c3cc(OC)cc(OC)c3)[nH]c2-c2ccc(OC)cc2)cc1	53.1 µM	> 100 µM	2.36	9.25 µM	3.93	> 100	> 100 µM	> 100 µM	> 100 µM	> 100 µM	8.06	> 100 µM	> 100	> 100	5.98	> 100 µM
CC(C)CC(C/C=C1/CC(CO)(COC(=O)C(C)(C)C)OC1=O)CC(C)C (stereo not drawn)	1.58 µM and 0.543 µM	15.7 µM and 1.97 µM		40.5 µM and 23.9 µM		18.4	10.8 µM and 1.92 µM	31.7 µM and 20.1 µM	1.72 µM and 7.83 µM	17.7 µM and 26.3 µM		29.5 µM and 30.9 µM		39.7		18.3 µM and 15 µM
COc1cc2c(/C=N\N=C(N)N)c[nH]c2cc1C	38.4 µM	> 100 µM	11.7	27.9 µM	14.6	27.7			19.4 µM	46.8 µM	14.6	27.7 µM	25.8	62.2	17	33.2 µM
Nc1ccccc1O.O.O=C(O)C1[O][Sb][O]C1C(=O)O (stereo not drawn)	18 µM	32.4 µM	12.2	34 µM	0.713		17.6 µM	35 µM	10.5 µM	26 µM	17.8	39.6 µM	88.3	> 100	16.5	30.8 µM
O=C(/C=C/c1ccccc1)c1ccccc1		> 10 µM		> 10 µM		> 7.45		> 10 µM		> 10 µM		4.55 µM		> 10		> 10 µM
O=C1Nc2ccccc2/C1=C1\CCc2cc(O)ccc21	10.7 µM	> 25 µM	6.35	> 25 µM	7.19	> 25	9.95 µM	> 25 µM	19.2 µM	> 25 µM	8.79	> 25 µM	8.5	> 25	2.24	> 25 µM
CCCC/C(=C\C1=C(C)C(=O)C(OC)=C(OC)C1=O)C(=O)O	> 100 µM	> 100 µM	33.2	94.3 µM			> 100 µM	> 100 µM	> 100 µM	> 100 µM	> 100	> 100 µM	> 100	> 100	> 100	> 100 µM
CCC/C=C/C=C/C1CC(O)C(O)C(=O)C1CO (stereo not drawn)		> 100 µM		> 100 µM		> 100				> 100 µM		> 100 µM		> 100		> 100 µM
O=C1CCCN1c1ccccc1I(=O)=O	> 100 µM	> 100 µM	91.4	> 100 µM	> 100	> 100			> 100 µM	> 100 µM			> 100	> 100	> 100	> 100 µM
CCc1ccc2c(c1)C(=O)c1c-2n(CCCN=[N+]=[N-])c(=O)c2cc([N+](=O)[O-])ccc12	> 50 µM	> 50 µM	> 50	> 50 µM	> 50	> 50	> 50 µM	> 50 µM	> 50 µM	> 50 µM	> 50	> 50 µM			> 50	> 50 µM
Cn1cc(-c2csc(-c3cn(CCCCN4CCCCC4)c4ccccc34)n2)c2cccnc21	1.61 µM	3.05 µM	14.3	40.3 µM			1.6 µM	3.19 µM	1.64 µM	3.05 µM			1.77	3.21	1.13	2.36 µM
COc1ccc(-c2cnnn2-c2nonc2-n2cccc2)cc1	2.12 µM	> 61 µM			0.228	3.85	0.34 µM	> 83.1 µM	0.488 µM	> 34 µM	0.354		0.319	4.28	0.0325	0.173 µM
CC1CC(O)C(=O)C(O[C@@H]2C[C@@H]3CC[C@@H]4[C@H](CC[C@]5(C)C(C6=CC(=O)OC6)CC[C@]45O)[C@@]3(C=O)C[C@H]2O)O1 (stereo partly drawn)		0.173 µM		0.205 µM				0.0492 µM		0.0341 µM		0.0511 µM		0.122		0.177 µM
COC(=O)/C(=N/O)C(C(=O)C=C(C)C)C(=O)C(=O)Nc1nc2ccc([N+](=O)[O-])cc2s1 (stereo not drawn)		95.8 µM				74.7		> 100 µM		> 100 µM		> 100 µM		63		
COC(c1ccc(C(C)(C)C)cc1)(c1ccc(C(C)(C)C)cc1)c1ccc(C(C)(C)C)cc1		> 100 µM		> 100 µM		> 100		> 100 µM		> 100 µM		> 100 µM				> 100 µM
